Experimental data as given in patent US9675627B2, “Dosing regimens for treating and/or preventing cerebral amyloidoses” (Amicus Therapeutics, Inc., priority 2014, dated 2017).

Key:
[1] = system: Dutch APP^E693Q transgenic mice; test: Novel object recognition (NOR); assay type: in vivo; conditions: 3-month course, higher doses (30 or 100 mg/kg)
Protocol: (§1) The generation and characterization of Dutch APPE693Q mice transgenic mice is described in Gandy, S., et al. Days to criterion as an indicator of toxicity associated with human Alzheimer amyloid-beta oligomers. Annals of neurology 68, 220-230 (2010). 3-month-old male Dutch APP^E693Q mice transgenic mice were orally gavaged 5 days/week with either vehicle (water) (n=15) or 3, 10, 30 or 100 mg/kg AdDNJ for 3 months (n=13). All animal studies were approved and conducted in accordance with the Institutional Animal Care and Usage Committee. Mice were kept in a pathogen-free environment, on a 12-hour light/dark cycle and given ad libitum access to food and water. At 6 month of age treatment groups, and a 3-month-old untreated baseline group (n=15), were cognitively assessed in the NOR, EPM and FC tests. 48 hours following the final dose mice were perfused with ice-cold 1×PBS. The brain was removed and dissected into two hemispheres. One half was snap-frozen on dry ice and stored at −80° C. for biochemistry; the other half was post-fixed in 4% paraformaldehyde then sagittally sectioned on a vibratome into 30 μm sections and stored at 4° C. in storage buffer until histological analyses. […]
On day 1, the mouse was placed in the NOR arena (20 cm diameter) for 10 min to acclimatize. […] The duration spent exploring the objects was then measured using ANY-maze (Stoelting, Wood Dale, Ill.).

[2] = target: T1, α-galactosidase (α-Gal) (Homo sapiens, UniProt P06280); test: Selectivity: alpha-galactosidase activity in fibroblast lysate; assay type: biochemical; conditions: 10 μM, the highest concentration tested
T1 construct: wild-type fibroblast (CRL2076) pellets (˜2.5e6 cells/pellet) were lysed; host or cells: wild-type fibroblasts CRL2076, lysate
T1 sequence (P06280 32-429): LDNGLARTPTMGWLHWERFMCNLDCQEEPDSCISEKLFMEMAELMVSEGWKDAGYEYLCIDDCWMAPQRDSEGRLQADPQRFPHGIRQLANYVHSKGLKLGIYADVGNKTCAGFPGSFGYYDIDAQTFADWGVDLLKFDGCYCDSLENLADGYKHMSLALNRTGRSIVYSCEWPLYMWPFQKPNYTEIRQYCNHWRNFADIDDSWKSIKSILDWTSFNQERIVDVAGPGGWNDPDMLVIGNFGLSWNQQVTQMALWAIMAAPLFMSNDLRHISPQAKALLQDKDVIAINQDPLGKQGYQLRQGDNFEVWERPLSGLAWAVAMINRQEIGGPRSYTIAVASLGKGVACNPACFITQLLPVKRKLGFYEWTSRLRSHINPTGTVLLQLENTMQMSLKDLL
Excerpt: Enzymatic activity measurements were done in duplicate.

[3] = system: β-hex
Protocol: AdDNJ selectivity was assessed by measuring its effect on the enzymatic activity of hexosaminadase (Total Hex, Hex A/S and Hex B), and 3 other lysosomal hydrolases: alpha-galactosidase, beta-galactosidase and glucocerebrosidase. For enzymatic assays, wild-type fibroblast (CRL2076) pellets (˜2.5e6 cells/pellet) were lysed with 200 μl of pH 5 lysis buffer (Phosphate/citrate, 0.25% tauorocholate, 0.1% TX100). Fibroblast lysates were diluted 1:200 in pH 5 reaction buffer (lysis buffer without TX100) containing 2 mM of the appropriate 4-methylumbelliferyl (4-MU) substrate, incubated for 1 h at 37° C. and stopped with 0.5 M sodium carbonate. Released 4MU was measured using a Perkin Elmer Victor 5× fluorescence plate reader (ex355/em460). Measurement of Total Hex activity was carried out using 4-methylumbelliferyl beta-N-acetylglucosaminide (MUG); for Hex A/S activity 4MU-beta-N-acetylglucosamine-6-sulfate (MUGS); Hex B activity was calculated as the difference between Total Hex and Hex A/S activity; for alpha-galactosidase activity […]; for beta-galactosidase activity 4-MU beta-D-galactoside; for glucocerebrosidase activity 4MU beta-D-glucopyranoside. As positive controls for enzymatic inhibition 100 μM of the following compounds were used: for alpha-galactosidase, 1-deoxygalactonojirimycin; for beta-galactosidase, N-Butyl-1-deoxygalactonojirimycin; for glucocerebrosidase, isofagamine. For beta-hexosaminadase enhancement assays, fibroblasts were exposed to 0, 95, 390 and 780 nM of AdDNJ for 5 days followed by beta-hexosamindase activity measurement. Enzymatic activity measurements were done in duplicate.
5-week-old C57BL/J6 mice (n=5 mice/group, Taconic Farms, Germantown, N.Y.) were administered vehicle (water) or AdDNJ (30, 100 or 300 mg/kg) via oral gavage every day for 14 days. On day 15 mice were euthanized and brain/plasma collected for analysis. For single dose PK studies, 5-week-old C57BL/J6 mice (n=5 mice/group, Taconic Farms, Germantown, N.Y.) received a single 100 mg/kg dose (oral gavage) of AdDNJ and groups euthanized at 0.5, 1, 2, 4, 8, 16, 24 and 48 hours post dose for brain and plasma analysis. Whole brain tissue (10-15 mg) was homogenized in 1 mL of pH 5 lysis buffer for measuring beta-hexosaminidase activity as described above. AdDNJ levels were measured in plasma and brain samples using LC-MS/MS.

[4] = system: Dutch APP^E693Q transgenic mice; test: Elevated plus maze (EPM); assay type: in vivo; conditions: 3-month course, 3, 10, 30 or 100 mg/kg
Protocol: as §1, with “hemispheres.” for “hemispheres. One half was snap-frozen on dry ice and stored at −80° C. for biochemistry; the other half was post-fixed in 4% paraformaldehyde then sagittally sectioned on a vibratome into 30 μm sections and stored at 4° C. in storage buffer until histological analyses.”
The maze in the configuration of a+ and comprised two open arms (35×5×0 cm) across from each other and perpendicular to two closed arms (35×5×16 cm) with a central neutral zone (Stoelting, Wood Dale, Ill.). […] Each trial was videotaped overhead and scored for amount of time spent in the open and closed arms using ANY-maze (Stoelting, Wood Dale, Ill.). […]

[5] = daily gavage 14 days at 30, 100 and 300 mg/kg

**Q.** Which “learning behavior in NOR test” value [1] does the source give for CC(=O)NC1CNC(CO)[C@@H](O)C1O (stereo partly shown) [AdDNJ, 2-acetamido-1,2-dideoxynojirimycin] here?
**A.** protection from the typical aging-related learning behavior deficits

**Q.** And the “inhibition of α-galactosidase (α-Gal)” value [2]?
**A.** did not inhibit

**Q.** And the “time of maximum increase in β-hex levels” value ([3]; daily gavage 30, 100, 300 mg/kg)?
**A.** ~5 days

**Q.** And the “GM2 levels in whole brain extracts” value [3, 5]?
**A.** without increasing GM2 levels

**Q.** What about the “brain β-hex levels” value [3, 5] of the same compound?
**A.** dose-dependent increase

**Q.** What about the “half-life of elevated β-hex levels in the brain” value ([3]; data not shown) of the same compound?
**A.** ~48 h

**Q.** What about the “anxiety in elevated plus maze” value [4] of the same compound?
**A.** reduced anxiety at all doses tested
